Source: patent US8278469B2, “17-hydroxy-17-pentafluoroethyl-estra-4,9(10)-dien-11-aryl derivatives, method of production thereof and use thereof for the treatment of diseases” (Bayer Pharma Aktiengesellschaft, priority 2009, dated 2012)

What was measured:
[1] = biological target: T1, human progesterone receptor B (PR-B) (Homo sapiens, UniProt P06401); experiment: Progesterone receptor-antagonistic action in stable transfectants of SK-N-MC cells with human PR-B and MTV-LUC reporter; assay type: cell-based; conditions: SK-N-MC, 24 h, read-out: Progesterone receptor B (PR-B) Efficacy
T1 construct: expressed in transfected cells; host or cells: SK-N-MC human neuroblastoma cells, stably transfected with pRChPR-B-neo and pMMTV-LUC
T1 sequence (P06401 1-933): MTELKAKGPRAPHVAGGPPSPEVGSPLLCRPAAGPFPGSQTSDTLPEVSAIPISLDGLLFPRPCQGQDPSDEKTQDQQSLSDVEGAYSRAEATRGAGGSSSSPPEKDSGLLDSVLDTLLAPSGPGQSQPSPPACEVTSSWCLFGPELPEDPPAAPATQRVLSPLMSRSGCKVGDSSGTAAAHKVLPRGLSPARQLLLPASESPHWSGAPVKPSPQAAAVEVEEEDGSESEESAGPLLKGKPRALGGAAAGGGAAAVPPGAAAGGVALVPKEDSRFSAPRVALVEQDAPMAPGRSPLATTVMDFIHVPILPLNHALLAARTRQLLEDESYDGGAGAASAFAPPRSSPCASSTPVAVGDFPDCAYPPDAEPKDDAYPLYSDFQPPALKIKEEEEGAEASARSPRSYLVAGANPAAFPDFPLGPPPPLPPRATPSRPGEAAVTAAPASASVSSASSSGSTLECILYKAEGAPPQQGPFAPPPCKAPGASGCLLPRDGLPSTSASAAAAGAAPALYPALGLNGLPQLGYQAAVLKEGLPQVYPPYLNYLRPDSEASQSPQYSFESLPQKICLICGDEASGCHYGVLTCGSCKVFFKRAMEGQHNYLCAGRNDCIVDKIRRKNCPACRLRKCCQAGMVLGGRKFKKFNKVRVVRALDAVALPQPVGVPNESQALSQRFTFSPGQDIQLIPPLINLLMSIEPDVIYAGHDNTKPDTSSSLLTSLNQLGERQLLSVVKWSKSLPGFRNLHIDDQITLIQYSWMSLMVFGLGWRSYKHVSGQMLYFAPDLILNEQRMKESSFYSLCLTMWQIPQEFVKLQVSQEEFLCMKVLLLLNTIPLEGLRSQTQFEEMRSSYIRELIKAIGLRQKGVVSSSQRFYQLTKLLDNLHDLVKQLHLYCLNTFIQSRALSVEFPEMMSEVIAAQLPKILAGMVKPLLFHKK
Description: Progesterone Receptor-Antagonistic Action in Stable Transfectants of Human Neuroblastoma Cells (SK-N-MC Cells) with the Human Progesterone A or Progesterone B Receptor and an MTV-LUC Reporter Construct
SK-N-MC cells (human neuroblastoma cells), which have been stably transfected with plasmids, which express the human progesterone receptor B (pRChPR-B-neo) or the human progesterone receptor A (pRChPR-A-neo) and a reporter construct (pMMTV-LUC), were incubated for 24 hours either in the absence (negative control) or in the presence of increasing amounts of the respective test compound (0.01 nmol/l, 0.1 nmol/l, 1 nmol/l, 10 nmol/l, 100 nmol/l and 1 μmol/l), in order to determine the agonistic efficacy. As positive control of reporter gene induction, the cells were treated with the synthetic gestagen promegestone (0.01 nmol/l, 0.1 nmol/l, 1 nmol/l, 10 nmol/l, 100 nmol/l and 1 μmol/l). For determination of the antagonistic activity, the cells were treated with 0.1 nmol/l promegestone and additionally with increasing amounts of the respective test compound (0.01 nmol/l, 0.1 nmol/l, 1 nmol/l, 10 nmol/l, 100 nmol/l and 1 μmol/l). The activity of the LUC reporter gene (LUC=luciferase) was determined in the cell lysates and was measured as RLU (relative light units). All measured values are given as percentage efficacy and as EC50 or IC50 concentrations.
11β-(4-Acetylphenyl)-20,20,21,21,21-pentafluoro-17-hydroxy-19-nor-17α-pregna-4,9-dien-3-one and 20,20,21,21,21-pentafluoro-17-hydroxy-11β-[4-(hydroxyacetyl)phenyl]-19-nor-17α-pregna-4,9-dien-3-one, very potent and therefore preferred examples from WO98/34947 and WO2008/058767, were tested as comparative compounds along with the test compound.

[2] = Permeation in Caco-2 cells; assay type: in vitro ADME; conditions: human, Caco-2, 2 μM, 37° C., apical to basolateral
Description: Permeation of (11β,17β)-17-hydroxy-11-[4-(methylsulphonyl)phenyl]-17-(pentafluoroethyl)estra-4,9-dien-3-one in Caco-2 Cells
For the permeation studies, Caco-2 cells with a cell count of 300000 cells/ml were cultivated on Transwell Clear filter inserts (polyester; pore size 0.4 μm) in 12-well cell culture plates for at least 14 days in cell culture medium (1.5 ml) at 37° C., 5% CO2 and 95% air humidity. Before the test, to verify the “compactness” of the cell monolayer, the transepithelial resistance (TEER value) was determined, which must be greater than 300 Ωcm^2. Then the cell culture medium was replaced with hot transport buffer (0.5 ml apical, 1.5 ml basolateral) and the cells were equilibrated in it for 5 min. The permeability test was performed in duplicate at a substance concentration of 2 μM. At the start of the experiment, 100 μl (Ap0 min) was taken from the apical compartment and 100 μl of ice-cold stopping solution was added to it immediately. […] After further dilution of the samples with 4 times the volume of stopping solution/transport buffer (1+1) they were sedimented overnight at −20° C. and the supernatant was analysed by LCMS/MS. The Papp value of the substances was calculated from the following formula. […]

[3] = Chemical stability against temperature, light and oxidative stress; assay type: physicochemical; conditions: compared with the analogue with an alkanoyl or hydroxyalkanoyl group

For `C[C@]12C[C@H](c3ccc(S(C)(=O)=O)cc3)C3=C4CCC(=O)C=C4CC[C@H]3[C@@H]1CC[C@@]2(O)C(F)(F)C(F)(F)F` [Example 4, (11β,17β)-17-Hydroxy-11-[4-(methylsulphonyl)phenyl]-17-(pentafluoroethyl)estra-4,9-dien-3-one], the Emax [1] was 100%, the Papp A→B at 90 min, 2 μM [2] was 10.4 ×10⁻⁶ cm/s and the Oxidation sensitivity [3] was “surprisingly low oxidation sensitivity”. For the same molecule, the “Stability under the influence of UV light” value [3] was “surprisingly high stability” and the “Stability under thermal load” value [3] was “surprisingly high stability”.
